The record followed here is patent US9193731B2, “Antimicrobial compounds and methods of making and using the same” (Melinta Therapeutics, Inc., priority 2009, dated 2015).

The assay deals with Escherichia coli strain ATCC25922. Kind of assay: standard microdilution assay to determine minimum inhibitory concentrations (MICs). In kind it is cell-based. To be noted: for E. coli ATCC25922 MIC: Escherichia coli strain ATCC25922, microdilution; for MIC: Escherichia coli, ATCC25922, Escherichia coli strain ATCC25922, microdilution, read-out: E. coli ATCC25922 MIC. The gist of the method:
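E. coli strain ATCC25922 tested per CLSI microdilution methodology (about 100 microliters per well) to find minimum inhibitory concentrations. Activity scored categorically at a 16 micrograms/ml threshold.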

The structures appear in SMILES notation. Some results are limits rather than exact numbers.

Take `CN(C)Cc1ccc(-n2cc3cc(-c4ccc(S(=O)(=O)N(CC5COc6ccccc6O5)C5CCNCC5)cc4)[nH]c3nc2=O)cc1` (centres unmarked) [Compound 999]: the “E. coli ATCC25922 MIC” value is “− (a “−” indicates that the compound has an MIC value greater than 16 micrograms/ml)”.

`N=C(N)NCCCNCc1ccc(-n2cc3cc(-c4ccc(S(=O)(=O)N(Cc5cc(OC(F)(F)F)ccc5F)C5CCOCC5)cc4)[nH]c3nc2=O)cc1` [Compound 879]: the “E. coli ATCC25922 MIC” value is “+ (a “+” indicates that the compound has an MIC value of 16 micrograms/ml or less)”.

One may read the MIC as the smallest concentration in the dilution series that meets the test's criterion for growth inhibition. For `NCc1ccc(-n2cc3cc(-c4cccc(S(=O)(=O)N(CCn5cccn5)C5CCNCC5)c4)[nH]c3nc2=O)cc1` [Compound 1174], the MIC is greater than 16 µg/mL.

Turning to `N=C(N)NCCCNCc1ccc(-n2cc3cc(-c4ccc(S(=O)(=O)N(CC5CCOCC5)C5CCNCC5)cc4)[nH]c3nc2=O)cc1` [Compound 758], the “E. coli ATCC25922 MIC” value is given as “+ (a “+” indicates that the compound has an MIC value of 16 micrograms/ml or less)”.

With `NC(=O)c1ccc(-n2cc3cc(-c4ccc(S(=O)(=O)N(CCOc5ccc(F)cc5)C5CCNCC5)cc4)[nH]c3nc2=O)cc1` [Compound 1080], the MIC was greater than 16 µg/mL.

`NCCCOc1cccc(-c2cc3cn(-c4ccc(CN)cc4)c(=O)nc3[nH]2)c1` [Compound 1087]: the MIC was greater than 16 µg/mL.

On to `NCc1ccc(-n2cc3cc(-c4cccc(S(=O)(=O)N(CCc5ccc(O)cc5)C5CCNCC5)c4)[nH]c3nc2=O)cc1` [Compound 1182], for which the MIC is greater than 16 µg/mL.

`N=C(N)NCCCNCc1ccc(-n2cc3cc(-c4ccc(S(=O)(=O)N(Cc5ccncc5)C5CCNCC5)cc4)[nH]c3nc2=O)cc1` [Compound 757]: the MIC was less than 16 µg/mL.

Consider `N=C(N)NCCCN(CCCN)Cc1ccc(-n2cc3cc(-c4ccc(S(=O)(=O)NC5CCNCC5)cc4F)[nH]c3nc2=O)cc1` [Compound 221], for which the MIC was less than 16 µg/mL.

On to `N=C(N)NCCCNCc1ccc(-n2cc3cc(C4CCN(C(=N)N)C4)[nH]c3nc2=O)cc1` (centres unmarked) [Compound 1230], for which the MIC is less than 16 µg/mL.

In the case of `N=C(N)NCCCNCc1ccc(-n2cc3cc(-c4ccc(C(NC5CNC5)C(F)F)cc4)[nH]c3nc2=O)cc1` (centres unmarked) [Compound 1462], the “E. coli ATCC25922 MIC” value was “+ (a “+” indicates that the compound has an MIC value of 16 micrograms/ml or less)”.

With `N=C(N)NCCCCCc1ccc(-c2cn3cc(-c4ccc(Br)cc4)[nH]c3nc2=O)cc1` [Compound 885], the MIC is greater than 16 µg/mL.

`N=C(N)NCCCNCc1ccc(-c2cn3cc(-c4ccc(C(=O)N5CCNCC5)cc4)[nH]c3nc2=O)cc1` [Compound 683]: the MIC was less than 16 µg/mL.

As to `CN(Cc1ccccc1)Cc1cc2cn(-c3ccc(CNCCCNC(=N)N)cc3)c(=O)nc2[nH]1` [Compound 906], the MIC was greater than 16 µg/mL.

`N=C(N)NCCCN(CCCN)Cc1ccc(-n2cc3cc(-c4ccc(C(=O)NC5CN6CCC5CC6)cc4)[nH]c3nc2=O)cc1` (centres unmarked) [Compound 216]: the minimum inhibitory concentration (MIC) is less than 16 µg/mL.

Take `N=C(N)NCCCNCc1ccc(-n2cc3cc(-c4ccc(S(=O)(=O)CCCNC5CCNC5)cc4)[nH]c3nc2=O)cc1` (centres unmarked) [Compound 1330]: the “E. coli ATCC25922 MIC” value is “+ (a “+” indicates that the compound has an MIC value of 16 micrograms/ml or less)”.

Turning to `NCCCOCc1ccc(-c2cn3cc(-c4ccc(C(=O)NC5CCNCC5)cc4)[nH]c3nc2=O)cc1` [Compound 927], the MIC is greater than 16 µg/mL.

Take `CC(CCN)Oc1cccc(-c2cc3cn(-c4ccc(CNCCCNC(=N)N)cc4)c(=O)nc3[nH]2)c1` (centres unmarked) [Compound 1414]: the “E. coli ATCC25922 MIC” value is reported as “+ (a “+” indicates that the compound has an MIC value of 16 micrograms/ml or less)”.

Regarding `CC(=O)NCc1ccc(-n2cc3cc(-c4cccc(CCCN)c4)[nH]c3nc2=O)cc1` [Compound 2063a], the “E. coli ATCC25922 MIC” value is “− (a “−” indicates that the compound has an MIC value greater than 16 micrograms/ml)”.

For the molecule `NCCCN1CCC(c2cn3cc(-c4ccc(F)cc4)[nH]c3nc2=O)CC1` [Compound 567], the MIC is greater than 16 µg/mL.

As for `CCOC(=O)C1(CN(C2CCNCC2)S(=O)(=O)c2ccc(-c3cc4cn(-c5ccc(CNCCCNC(=N)N)cc5)c(=O)nc4[nH]3)cc2)CC1` [Compound 878], the “E. coli ATCC25922 MIC” value is listed as “+ (a “+” indicates that the compound has an MIC value of 16 micrograms/ml or less)”.

For the molecule `NCCCNCc1ccc(-n2cc3cc(CN4CCOC4=O)[nH]c3nc2=O)cc1` [Compound 289], the MIC was greater than 16 µg/mL.

As to `CC(C)(CN)COc1cccc(-c2cc3cn(-c4ccc(CNCCCNC(=N)N)c(F)c4)c(=O)nc3[nH]2)c1` [Compound 1361], the “E. coli ATCC25922 MIC” value was “+ (a “+” indicates that the compound has an MIC value of 16 micrograms/ml or less)”.

For `COc1ccc(CN(C2CCNCC2)S(=O)(=O)c2ccc(-c3cc4cn(-c5ccc(C(N)=O)cc5)c(=O)nc4[nH]3)cc2)cc1[N+](=O)[O-]` [Compound 1091], the “E. coli ATCC25922 MIC” value was “− (a “−” indicates that the compound has an MIC value greater than 16 micrograms/ml)”.

Regarding `NCCCNCc1ccc(-n2cc3cc(-c4ccc(S(=O)(=O)N(CC5CCOCC5)C5CCCNC5)cc4)[nH]c3nc2=O)cc1` (centres unmarked) [Compound 830], the MIC is greater than 16 µg/mL.

In the case of `N=C(N)NCCCNCc1ccc(-n2cc3cc(-c4ccc(S(=O)(=O)N(CCCN5CCCCC5)C5CCNCC5)cc4)[nH]c3nc2=O)cc1` [Compound 839], the “E. coli ATCC25922 MIC” value is listed as “+ (a “+” indicates that the compound has an MIC value of 16 micrograms/ml or less)”.

For `N=C(N)NCCCNCc1ccc(-n2cc3cc(C4CN(C(=N)N)CCO4)[nH]c3nc2=O)cc1` (centres unmarked) [Compound 1335], the MIC is less than 16 µg/mL.

As for `N=C(N)NCCCNCc1ccc(-n2cc3cc(-c4cccc(OC[C@@H]5CCNC5)c4)[nH]c3nc2=O)cc1` [Compound 1423], the “E. coli ATCC25922 MIC” value is on record as “+ (a “+” indicates that the compound has an MIC value of 16 micrograms/ml or less)”.

Regarding `N=C(N)N[C@@H]1CCCN(Cc2ccc(-n3cc4cc(-c5ccc(S(=O)(=O)NC6CCNCC6)cc5)[nH]c4nc3=O)cc2)C1` [Compound 1119], the “E. coli ATCC25922 MIC” value was “+ (a “+” indicates that the compound has an MIC value of 16 micrograms/ml or less)”.

Take `COc1cccc(CCCN(C2CCNCC2)S(=O)(=O)c2ccc(-c3cc4cn(-c5ccc(CN)cc5)c(=O)nc4[nH]3)cc2)c1` [Compound 1036]: the MIC is greater than 16 µg/mL.

On to `N=C(N)NCCCNCc1ccc(-c2cn3cc(-c4ccc(C(=O)N5CCOCC5)cc4)[nH]c3nc2=O)cc1` [Compound 654], for which the MIC is greater than 16 µg/mL.

With `CN(C)C(=O)c1cc(-c2cc3cn(-c4ccc(CNCCCNC(=N)N)cc4)c(=O)nc3[nH]2)cc(N2CCNCC2)c1` [Compound 797], the MIC is less than 16 µg/mL.

Regarding `NCCCNC(=O)c1ccc(-n2cc3cc(-c4ccc(S(=O)(=O)NC5CCNCC5)cc4)[nH]c3nc2=O)cc1OCC1CCNCC1` [Compound 1241], the “E. coli ATCC25922 MIC” value was “− (a “−” indicates that the compound has an MIC value greater than 16 micrograms/ml)”.

Regarding `O=C(NC1CCNCC1)c1c(F)cc(-c2cc3cn(-c4ccc(CNCCCF)cc4)c(=O)nc3[nH]2)cc1F` [Compound 262], the MIC was greater than 16 µg/mL.

Consider `NCCCNCc1ccc(-c2cn3cc(-c4ccc(S(=O)(=O)N5CCN(C(=O)OCc6ccccc6)CC5)cc4)[nH]c3nc2=O)cc1` [Compound 791], for which the MIC was greater than 16 µg/mL.

For `N=C(N)NCCCNCc1ccc(-c2cn3cc(CCc4cc(F)c(F)cc4F)[nH]c3nc2=O)cc1` [Compound 952], the MIC was greater than 16 µg/mL.

For `N=C(N)NCCCNCc1ccc(-n2cc3cc(-c4cccc(NCC(=O)N5CCNCC5)c4)[nH]c3nc2=O)cc1` [Compound 645], the MIC was less than 16 µg/mL.

With `NC1CCN(Cc2ccc(-n3cc4cc(-c5ccc(S(=O)(=O)N6CCN7CCC6CC7)c(F)c5)[nH]c4nc3=O)cc2)CC1` [Compound 264], the MIC was greater than 16 µg/mL.

Consider `NCCCCOc1ccc(-c2cn3cc(-c4ccc(S(=O)(=O)NC5CCNCC5)cc4)[nH]c3nc2=O)cc1` [Compound 824], for which the “E. coli ATCC25922 MIC” value is “− (a “−” indicates that the compound has an MIC value greater than 16 micrograms/ml)”.

For the molecule `N=C(N)NCC(O)CNCc1ccc(-n2cc3cc(-c4ccc(S(=O)(=O)NC5CNC5)cc4)[nH]c3nc2=O)cc1` (centres unmarked) [Compound 1416], the “E. coli ATCC25922 MIC” value is recorded as “+ (a “+” indicates that the compound has an MIC value of 16 micrograms/ml or less)”.

On to `N=C(N)NCCCNCc1ccc(-n2cc3cc(-c4ccc(S(=O)(=O)N(Cc5ccc(Cl)c(Cl)c5)C5CCNCC5)cc4)[nH]c3nc2=O)cc1` [Compound 725], for which the minimal inhibitory concentration (MIC) is less than 16 µg/mL.

As for `CS(=O)(=O)c1ccc(-c2cn3cc(-c4ccc(CNCCCN)cc4)c(=O)nc3[nH]2)cc1` [Compound 631], the MIC was greater than 16 µg/mL.

Take `CNCc1ccc(-n2cc3cc(-c4ccc(S(=O)(=O)N(Cc5ccc(Cl)c(Cl)c5)C5CCNCC5)cc4)[nH]c3nc2=O)cc1` [Compound 933]: the “E. coli ATCC25922 MIC” value was “− (a “−” indicates that the compound has an MIC value greater than 16 micrograms/ml)”.

Take `O=c1nc2[nH]c(-c3ccc(S(=O)(=O)NC4CCNCC4)cc3)cc2cn1-c1cccc(OC2CCNC2)c1` (centres unmarked) [Compound 1148]: the MIC was greater than 16 µg/mL.

Regarding `NCCCNCc1ccc(-n2cc3cc(-c4cccc(S(=O)(=O)NC5CCNCC5)c4)[nH]c3nc2=O)cc1` [Compound 823], the “E. coli ATCC25922 MIC” value is reported as “+ (a “+” indicates that the compound has an MIC value of 16 micrograms/ml or less)”.

`N=C(N)NCCCCCn1cc2cc(-c3ccc(S(=O)(=O)NC4CCNCC4)cc3)[nH]c2nc1=O` [Compound 887]: the MIC was greater than 16 µg/mL.

On to `N[C@@H]1CCCN(Cc2ccc(-n3cc4cc(-c5ccc(S(=O)(=O)NC6CCNCC6)cc5)[nH]c4nc3=O)cc2)C1` [Compound 1120], for which the “E. coli ATCC25922 MIC” value is listed as “− (a “−” indicates that the compound has an MIC value greater than 16 micrograms/ml)”.

With `CN(CCCNCc1ccc(-n2cc3cc(-c4ccc(C(=O)NC5CCNCC5)cc4)[nH]c3nc2=O)cc1)C(=N)N` [Compound 241], the MIC was less than 16 µg/mL.

With `N=C(N)NCCCNCc1ccc(-n2cc3cc(-c4cccc(OCC(F)(F)CN)c4)[nH]c3nc2=O)cc1` [Compound 1404], the “E. coli ATCC25922 MIC” value is listed as “− (a “−” indicates that the compound has an MIC value greater than 16 micrograms/ml)”.

In the case of `N=C(N)NCCCNC(=O)c1ccc(-n2cc3cc(-c4ccc(S(=O)(=O)N(Cc5ccc(Cl)c(Cl)c5)C5CCNCC5)cc4)[nH]c3nc2=O)cc1` [Compound 995], the “E. coli ATCC25922 MIC” value was “+ (a “+” indicates that the compound has an MIC value of 16 micrograms/ml or less)”.
